Reference: ChEMBL document CHEMBL3351578, “Discovery and pharmacological profile of new hydrophilic 5-HT(4) receptor antagonists” (Bioorg Med Chem Lett, 2014)

Columns and labels:
[1] = biological target: T1, 5-hydroxytryptamine receptor 4 (Homo sapiens, UniProt Q13639); experiment: Displacement of [3H]GR113808 from human 5HT4b receptor expressed in HEK293 cell membranes
[2] = biological target: T1, 5-hydroxytryptamine receptor 4; experiment: Antagonist activity against human 5HT4b receptor expressed in HEK293 cells assessed as reduction in 5-HT-stimulated adenylyl cyclase activity; type: functional, cell-based
[3] = Lipophilicity, log D of the compound at pH 7.4; type: physicochemical; details: buffer
[4] = Oral bioavailability in Sprague-Dawley rat at 10 mg/kg after 30 mins to 6 hrs by LC/MS/MS method; type: ADME, organism-based; details: in vivo
[5] = biological target: Voltage-gated inwardly rectifying potassium channel KCNH2 (Homo sapiens, UniProt Q12809); experiment: Inhibition of human ERG expressed in HEK293 cells assessed as reduction in channel tail current by patch clamp method; type: cell-based
Chain of Voltage-gated inwardly rectifying potassium channel KCNH2 (Q12809 whole entry): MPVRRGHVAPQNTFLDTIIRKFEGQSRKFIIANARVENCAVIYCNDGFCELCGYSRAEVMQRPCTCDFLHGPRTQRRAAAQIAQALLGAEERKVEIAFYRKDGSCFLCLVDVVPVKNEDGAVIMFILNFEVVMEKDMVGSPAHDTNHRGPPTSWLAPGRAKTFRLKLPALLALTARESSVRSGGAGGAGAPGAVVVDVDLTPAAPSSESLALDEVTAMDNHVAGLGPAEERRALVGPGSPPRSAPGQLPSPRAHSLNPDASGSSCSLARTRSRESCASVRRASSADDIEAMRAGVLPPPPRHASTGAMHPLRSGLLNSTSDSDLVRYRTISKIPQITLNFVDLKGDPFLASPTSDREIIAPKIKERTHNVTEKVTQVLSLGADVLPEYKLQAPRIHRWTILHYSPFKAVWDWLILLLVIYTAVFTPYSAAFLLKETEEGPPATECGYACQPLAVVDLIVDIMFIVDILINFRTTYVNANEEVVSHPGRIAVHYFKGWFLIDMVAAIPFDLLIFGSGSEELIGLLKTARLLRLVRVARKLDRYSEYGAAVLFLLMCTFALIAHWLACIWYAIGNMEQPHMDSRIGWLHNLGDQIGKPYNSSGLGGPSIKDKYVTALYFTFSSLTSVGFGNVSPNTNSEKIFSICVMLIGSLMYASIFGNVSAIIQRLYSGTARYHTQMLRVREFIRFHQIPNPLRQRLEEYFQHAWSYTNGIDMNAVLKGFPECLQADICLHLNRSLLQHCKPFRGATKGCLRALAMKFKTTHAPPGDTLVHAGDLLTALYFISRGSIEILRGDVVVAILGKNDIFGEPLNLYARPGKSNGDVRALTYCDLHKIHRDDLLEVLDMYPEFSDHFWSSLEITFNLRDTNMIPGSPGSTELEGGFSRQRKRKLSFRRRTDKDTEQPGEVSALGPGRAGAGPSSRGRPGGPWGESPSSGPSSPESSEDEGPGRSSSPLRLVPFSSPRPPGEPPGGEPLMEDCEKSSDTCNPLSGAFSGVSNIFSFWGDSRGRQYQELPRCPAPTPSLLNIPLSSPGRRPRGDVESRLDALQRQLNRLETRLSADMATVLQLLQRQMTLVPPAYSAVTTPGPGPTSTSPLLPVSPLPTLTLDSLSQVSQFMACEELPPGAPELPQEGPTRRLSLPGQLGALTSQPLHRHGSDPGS

[6] = Tmax in Sprague-Dawley rat at 10 mg/kg, po or 1 mg/kg, iv after 30 mins to 6 hrs by LC/MS/MS method; type: ADME, organism-based; details: in vivo
[7] = Elimination half life in Sprague-Dawley rat at 10 mg/kg, po or 1 mg/kg, iv after 30 mins to 6 hrs by LC/MS/MS method; type: ADME, organism-based; details: in vivo, read-out: beta t1/2

T1 sequence (Q13639 whole entry): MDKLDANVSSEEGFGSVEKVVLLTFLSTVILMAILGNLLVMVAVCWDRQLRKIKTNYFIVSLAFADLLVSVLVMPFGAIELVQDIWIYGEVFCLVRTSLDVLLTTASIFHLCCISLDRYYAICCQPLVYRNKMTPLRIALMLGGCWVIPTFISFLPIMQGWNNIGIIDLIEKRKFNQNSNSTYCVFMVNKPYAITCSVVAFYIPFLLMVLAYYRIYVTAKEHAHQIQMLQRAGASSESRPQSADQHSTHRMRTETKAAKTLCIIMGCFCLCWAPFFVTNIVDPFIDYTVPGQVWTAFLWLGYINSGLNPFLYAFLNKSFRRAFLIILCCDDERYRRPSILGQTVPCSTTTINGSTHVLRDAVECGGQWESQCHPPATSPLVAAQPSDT

Structure (SMILES)	Ki [1]	pKb [2]	logD [3]	bioavailability [4]	IC50 [5]	Tmax [6]	half-life [7]
CS(=O)(=O)Nc1ccc(CN2CCC(CNC(=O)c3c4n(c5ccccc35)CCCO4)CC2)cc1	0.2 nM	8.3	1				
Cn1cc(C(=O)OCC2CCN(CCNS(C)(=O)=O)CC2)c2ccccc21		10.1					
CC(C)CS(=O)(=O)Nc1ccc(CN2CCC(CNC(=O)c3c4n(c5ccccc35)CCCO4)CC2)cc1	0.0501 nM	9.7	2.2				
O=C(OCC1CCN(CC(O)CO)CC1)c1c2n(c3ccccc13)CCCO2 (stereo not given)	0.0794 nM	9.1	0.2	10.3%	81000 nM	2.42 h	2.5 h
O=C(NCC1CCN(Cc2ccc(NS(=O)(=O)Cc3ccccc3)cc2)CC1)c1c[nH]c2ccccc12	1000 nM		1.2				
O=C(NCC1CCN(Cc2ccc(NS(=O)(=O)C3CCCCC3)cc2)CC1)c1c[nH]c2ccccc12	501 nM		0.5				
CCCCS(=O)(=O)Nc1ccc(CN2CCC(CNC(=O)c3c4n(c5ccccc35)CCCO4)CC2)cc1	1 nM	9.7	2.2				
O=C(NCC1CCN(Cc2ccc(NS(=O)(=O)C3CCCCC3)cc2)CC1)c1c2n(c3ccccc13)CCCO2	0.2 nM	8	2.7				
O=C(OCC1CCN(CC2C3CC4C2C4C3C(=O)O)CC1)c1c2n(c3ccccc13)CCCO2 (stereo not given)	1.58 nM	8.4	0.7				
CC(C(=O)O)c1ccc(CN2CCC(COC(=O)c3c4n(c5ccccc35)CCCO4)CC2)cc1 (stereo not given)	0.316 nM	8.8	1.1		25000 nM		
CCCCS(=O)(=O)Nc1ccc(CN2CCC(CNC(=O)c3cccc4c3OCCO4)CC2)cc1	0.251 nM	8	1.8				
CCCCN1CCC(CNC(=O)c2c3n(c4ccccc24)CCCO3)CC1 [PIBOSEROD]	0.398 nM	10.5					
CC(C)CS(=O)(=O)Nc1ccc(CN2CCC(CNC(=O)c3cccc4c3OCCO4)CC2)cc1	0.2 nM	8	1.8				
O=C(NCC1CCN(Cc2ccc(NS(=O)(=O)C3CCCCC3)cc2)CC1)c1cccc2c1OCCO2	1.26 nM	7.6	2.5				
CS(=O)(=O)Nc1ccc(CN2CCC(CNC(=O)c3cccc4c3OCCO4)CC2)cc1	0.2 nM	8.3	0.5				
